Results reported in the supplement of paper PMC11061612.

Columns and labels:
[1] = compound: C1CC(C1)(C(=O)[O-])C(=O)[O-].N.N.[Pt+2] [Carboplatin]; conditions: max 10 µM
Method in brief: (§1)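 Cancer cell lines were seeded in 1536-well plates in 7.5 μl DMEM/F12 or RPMI with 10% FBS, held 24 hours at 37°C and 5% CO2, then dosed for 72 hours (final DMSO typically 0.2%). Viability was read by CellTiter-Glo 2.0 luminescence and scaled between blank-well and DMSO-well means. The single-agent IC50 comes from dose responses fitted to a two-parameter logistic curve with a non-linear mixed effects model.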

[2] = compound: C1CN(CCC1(C(=O)N[C@@H](CCO)C2=CC=C(C=C2)Cl)N)C3=NC=NC4=C3C=CN4 [AZD5363]; conditions: max 10 µM
Method in brief: as §1

[3] = compound: C=CCn1c(=O)c2cnc(Nc3ccc(N4CCN(C)CC4)cc3)nc2n1-c1cccc(C(C)(C)O)n1 [AZD1775]; conditions: max 3 µM
Method in brief: as §1

[4] = compound: CC(=O)Nc1cccc(-n2c(=O)n(C3CC3)c(=O)c3c(Nc4ccc(I)cc4F)n(C)c(=O)c(C)c32)c1 [Trametinib]; conditions: max 1 µM
Method in brief: as §1

[5] = compound: CC(=O)O[C@H]1C(=O)[C@@]2(C)[C@H]([C@H](OC(=O)c3ccccc3)[C@]3(O)C[C@H](OC(=O)[C@H](O)[C@@H](NC(=O)c4ccccc4)c4ccccc4)C(C)=C1C3(C)C)[C@]1(OC(C)=O)CO[C@@H]1C[C@@H]2O [Paclitaxel]; conditions: max 3 µM
Method in brief: as §1

[6] = compound: CC(=O)c1c(C)c2cnc(Nc3ccc(N4CCNCC4)cn3)nc2n(C2CCCC2)c1=O [Palbociclib]; conditions: max 10 µM
Method in brief: as §1

[7] = compound: CC(C)n1c(=O)n(C)c2cnc3cc(F)c(-c4ccc(OCCCN5CCCCC5)nc4)cc3c21 [AZD1390]; conditions: max 0.3 µM
Method in brief: as §1

[8] = compound: CC1(C)CCC(CN2CCN(c3ccc(C(=O)NS(=O)(=O)c4ccc(NCC5CCOCC5)c([N+](=O)[O-])c4)c(Oc4cnc5[nH]ccc5c4)c3)CC2)=C(c2ccc(Cl)cc2)C1 [Venetoclax]; conditions: max 1 µM
Method in brief: as §1

[9] = compound: CC1=C(C(=CC=C1)Cl)NC(=O)C2=CN=C(S2)NC3=CC(=NC(=N3)C)N4CCN(CC4)CCO [Dasatinib]; conditions: max 2 µM
Method in brief: as §1

[10] = compound: CC1=CN2[C@@H](C1)C=NC3=CC(=C(C=C3C2=O)OC)OCCCCCOC4=C(C=C5C(=C4)N=C[C@@H]6CC(=CN6C5=O)C)OC [SG3199]; conditions: max 0.001 µM
Method in brief: as §1

[11] = compound: CCN(CCO)CCCOc1ccc2c(Nc3cc(CC(=O)Nc4cccc(F)c4)[nH]n3)ncnc2c1 [AZD2811]; conditions: max 1 µM
Method in brief: as §1

[12] = compound: CCc1c2c(nc3ccc(O)cc13)-c1cc3c(c(=O)n1C2)COC(=O)[C@]3(O)CC [SN-38]; conditions: max 0.3 µM
Method in brief: as §1

[13] = compound: CN(C)CCCOc1ccc(-c2ccc3ncc4c(c3c2)n(C2CCOCC2)c(=O)n4C)cn1 [AZD0156]; conditions: max 3 µM
Method in brief: as §1

[14] = compound: CN(CC[C@H](CSC1=CC=CC=C1)NC2=C(C=C(C=C2)S(=O)(=O)NC(=O)C3=CC=C(C=C3)N4CCC(CC4)[C@H](C5=CC=CC=C5C6=CC=C(C=C6)Cl)O)S(=O)(=O)C(F)(F)F)CCO [AZD4320]; conditions: max 1 µM
Method in brief: as §1

[15] = compound: COc1cc(Nc2ncc3c(n2)-c2ccc(Cl)cc2C(c2c(F)cccc2OC)=NC3)ccc1C(=O)O [Alisertib]; conditions: max 10 µM
Method in brief: as §1

[16] = compound: COc1cc([C@@H]2c3cc4c(cc3[C@@H](O[C@@H]3O[C@@H]5CO[C@@H](C)O[C@H]5[C@H](O)[C@H]3O)[C@H]3COC(=O)[C@H]23)OCO4)cc(OC)c1O [Etoposide]; conditions: max 10 µM
Method in brief: as §1

[17] = compound: COc1cc2ncnc(Nc3ccc(F)c(Cl)c3)c2cc1OCCCN1CCOCC1 [Gefitinib]; conditions: max 10 µM
Method in brief: as §1

[18] = compound: COc1cccc(OCCCN)c1-c1cc(Nc2cnc(C#N)cn2)n[nH]1 [Prexasertib]; conditions: max 1 µM
Method in brief: as §1

[19] = compound: COc1cccc2c1C(=O)c1c(O)c3c(c(O)c1C2=O)C[C@@](O)(C(=O)CO)C[C@@H]3O[C@H]1C[C@H](N)[C@H](O)[C@H](C)O1 [Doxorubicin]; conditions: max 1 µM
Method in brief: as §1

[20] = compound: COc1nnc2ccc(N3CCC(c4ccc(OCCN5CCN(C)C(=O)[C@H]5C)cc4)CC3)nn12 [AZD5153]; conditions: max 1 µM
Method in brief: as §1

[21] = compound: CS(=O)(=O)CCNCc1ccc(-c2ccc3ncnc(Nc4ccc(OCc5cccc(F)c5)c(Cl)c4)c3c2)o1 [Lapatinib]; conditions: max 10 µM
Method in brief: as §1

[22] = compound: C[C@@H](Nc1cc(F)cc(F)c1)c1cc(C(=O)N(C)C)cc2c(=O)cc(N3CCOCC3)oc12 [AZD8186]; conditions: max 10 µM
Method in brief: as §1

[23] = compound: C[C@@H](Oc1cc(-c2cnn(C3CCNCC3)c2)cnc1N)c1c(Cl)ccc(F)c1Cl [Crizotinib]; conditions: max 10 µM
Method in brief: as §1

[24] = compound: C[C@@H](c1ccc2nccn2c1)n1nnc2ncc(-c3cnn(C)c3)nc21 [Savolitinib]; conditions: max 1 µM
Method in brief: as §1

[25] = compound: C[C@@H]1COCCN1C2=NC(=NC(=C2)C3(CC3)[S@](=N)(=O)C)C4=C5C=CNC5=NC=C4 [AZD6738]; conditions: max 10 µM
Method in brief: as §1

[26] = compound: Cc1c2c(nn1C)CSCc1cc(n(C)n1)CSc1cc(c3ccccc3c1)OCCCc1c(C(=O)O)n(C)c3c-2c(Cl)ccc13 [AZD5991]; conditions: max 1 µM
Method in brief: as §1

[27] = compound: Cc1cc2ncnn2cc1Nc1ncc2c(n1)n(C1CCOCC1)c(=O)n2C [AZD7648]; conditions: max 10 µM
Method in brief: as §1

[28] = compound: Cc1nc(-c2cn3c(n2)-c2ccc(-c4cnn(C(C)(C)C(N)=O)c4)cc2OCC3)n(C(C)C)n1 [Taselisib]; conditions: max 10 µM
Method in brief: as §1

[29] = compound: Cn1cnc2c(F)c(Nc3ccc(Br)cc3Cl)c(C(=O)NOCCO)cc21 [Selumetinib]; conditions: max 10 µM
Method in brief: as §1

[30] = compound: N#Cc1cnc(Nc2cc(NC[C@H]3CNCCO3)c(C(F)(F)F)cn2)cn1 [SRA737]; conditions: max 10 µM
Method in brief: as §1

[31] = compound: NC1(c2ccc(-c3nc4ccn5c(=O)[nH]nc5c4cc3-c3ccccc3)cc2)CCC1 [MK-2206]; conditions: max 10 µM
Method in brief: as §1

[32] = compound: Nc1ccn([C@@H]2O[C@H](CO)[C@@H](O)C2(F)F)c(=O)n1 [Gemcitabine]; conditions: max 0.3 µM
Method in brief: as §1

[33] = compound: O=C(Nc1ccc2[nH]nc(-c3ccncc3)c2c1)[C@@H]1CCN(CC(=O)N2CCN(c3ccc(-c4ncccn4)cc3)CC2)C1; conditions: max 5 µM
Method in brief: as §1

[34] = compound: O=C(c1cc(Cc2n[nH]c(=O)c3ccccc23)ccc1F)N1CCN(C(=O)C2CC2)CC1 [Olaparib]; conditions: max 10 µM
Method in brief: as §1

[35] = compound: O=c1[nH]cc(F)c(=O)[nH]1 [5-Fluorouracil]; conditions: max 20 µM
Method in brief: as §1

| Cell Line | IC50, cell viability 72 h [1] | IC50, cell viability 72 h [2] | IC50, cell viability 72 h [3] | IC50, cell viability 72 h [4] | IC50, cell viability 72 h [5] | IC50, cell viability 72 h [6] | IC50, cell viability 72 h [7] | IC50, cell viability 72 h [8] | IC50, cell viability 72 h [9] | IC50, cell viability 72 h [10] | IC50, cell viability 72 h [11] | IC50, cell viability 72 h [12] | IC50, cell viability 72 h [13] | IC50, cell viability 72 h [14] | IC50, cell viability 72 h [15] | IC50, cell viability 72 h [16] | IC50, cell viability 72 h [17] | IC50, cell viability 72 h [18] | IC50, cell viability 72 h [19] | IC50, cell viability 72 h [20] | IC50, cell viability 72 h [21] | IC50, cell viability 72 h [22] | IC50, cell viability 72 h [23] | IC50, cell viability 72 h [24] | IC50, cell viability 72 h [25] | IC50, cell viability 72 h [26] | IC50, cell viability 72 h [27] | IC50, cell viability 72 h [28] | IC50, cell viability 72 h [29] | IC50, cell viability 72 h [30] | IC50, cell viability 72 h [31] | IC50, cell viability 72 h [32] | IC50, cell viability 72 h [33] | IC50, cell viability 72 h [34] | IC50, cell viability 72 h [35] |
| --- | --- | --- | --- | --- | --- | --- | --- | --- | --- | --- | --- | --- | --- | --- | --- | --- | --- | --- | --- | --- | --- | --- | --- | --- | --- | --- | --- | --- | --- | --- | --- | --- | --- | --- | --- |
| SW872 (Other Solid Carcinomas) | > 10 µM | > 10 µM | > 3 µM | > 1 µM | 0.21 µM | > 10 µM | > 0.3 µM | > 1 µM | > 2 µM | > 0.001 µM | > 1 µM | 0.0209 µM | > 3 µM | > 1 µM | > 10 µM | 6.82 µM | > 10 µM | 0.156 µM | 0.784 µM | 0.793 µM | > 10 µM | > 10 µM | > 10 µM | > 1 µM | > 10 µM | > 1 µM | > 10 µM | 8.84 µM | > 10 µM | > 10 µM | > 10 µM | 0.0691 µM | > 5 µM | > 10 µM | 8.43 µM |
| SW982 (Other Solid Carcinomas) | > 10 µM | > 10 µM | 1.14 µM | 0.702 µM | 0.00645 µM | 4.39 µM | > 0.3 µM | > 1 µM | 0.068 µM | > 0.001 µM | 0.444 µM | 0.00938 µM | > 3 µM | > 1 µM | 1.04 µM | 0.789 µM | > 10 µM | 0.0913 µM | 0.0804 µM | 0.0633 µM | > 10 µM | 4.65 µM | 3.59 µM | > 1 µM | 5.53 µM | > 1 µM | > 10 µM | 2.62 µM | > 10 µM | > 10 µM | > 10 µM | 0.0136 µM | 2.85 µM | > 10 µM | 11.3 µM |
